# Data taken from PubChem BioAssay AID720495 (Broad Institute, 2013).
# Inconclusive results are not listed. Active and inactive are the calls of the source. No rule for the calls is given here.
# Molecular target: Protein AF-9 (Homo sapiens) (UniProt P42568)
# Assay: inhibitors of AF4-AF9 protein interaction, dose response, biochemical, cherry-picked samples, plate reader (AID 720495)
# Conditions: biochemical protein-protein interaction assay
# Protein AF-9 (Homo sapiens), sequence (P42568 whole entry, looked up): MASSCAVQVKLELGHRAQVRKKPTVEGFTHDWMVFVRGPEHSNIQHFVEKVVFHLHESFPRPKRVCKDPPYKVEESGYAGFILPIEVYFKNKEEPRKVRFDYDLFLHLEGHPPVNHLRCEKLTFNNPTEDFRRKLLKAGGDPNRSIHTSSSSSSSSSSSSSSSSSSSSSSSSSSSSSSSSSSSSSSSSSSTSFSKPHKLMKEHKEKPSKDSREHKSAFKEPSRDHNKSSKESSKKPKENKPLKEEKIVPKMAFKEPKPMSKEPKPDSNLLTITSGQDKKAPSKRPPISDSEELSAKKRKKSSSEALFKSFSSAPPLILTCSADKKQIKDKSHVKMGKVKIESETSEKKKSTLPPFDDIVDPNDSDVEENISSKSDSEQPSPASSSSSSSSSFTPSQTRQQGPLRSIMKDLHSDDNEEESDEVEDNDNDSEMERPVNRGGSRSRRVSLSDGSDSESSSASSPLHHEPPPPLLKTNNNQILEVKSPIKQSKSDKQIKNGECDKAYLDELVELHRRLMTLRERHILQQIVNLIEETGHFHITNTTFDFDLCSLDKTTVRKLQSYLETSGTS
row,Structure (SMILES),AC50 [µM]
1,CN(C)c1ccc(Nc2nc(N)c3ccccc3n2)cc1,7.47
2,C#CCOCCOCCOCCNc1nc(N2CCN(C(=O)[C@H](CCCCN)n3cc([C@@H](N)C(C)CC)nn3)CC2)nc(N2CCN(C(=O)[C@H](CCCCN)n3cc([C@@H](N)CC(C)C)nn3)CC2)n1 (some centres undefined),0.702
3,O=c1[nH]c2ccccc2n1C1CCN(C(c2nnnn2C2CCCCC2)C2CC2)CC1 (centres undefined),11.1
4,CCOc1ccc(NCc2cccn2-c2nnc(N3CCC(C(=O)NCCCN4C(C)CCCC4C)CC3)s2)cc1 (centres undefined),5.36
5,N=C(N)c1ccc(/C=C/c2ccc(C(=N)N)cc2O)cc1,3.33
6,COc1ccc(N2CCN(CCCNC(=O)CCC(=O)N3CCOc4ccc(Cl)cc43)CC2)cc1,11.5
7,CN(C)c1ccc(N=Nc2ccccc2Br)cc1,10.3
8,O=C(CN1CCCC1)N/N=C/c1c(O)ccc2ccccc12,0.249
9,COc1ccc(C#Cc2ccc3c(c2)[C@H]2[C@H](CCN2C(=O)c2ccncc2)[C@@H](CO)N3)cc1,10.7
10,COc1ccc(C(CCNCc2ccc(N(C)C)cc2)c2ccccc2OC)cc1 (centres undefined),6.09
11,Brc1ccc(N/N=C(/N=Nc2nn[nH]n2)c2ccccc2)cc1,5.84
12,N=C1C=CC(=C(c2ccc(N)cc2)c2ccc(N)cc2)C=C1,6.08
13,C[C@@H]1NC(=O)N[C@@H]1CCCCCC(=O)O,< 0.08
14,Cc1[nH]c2ccccc2c1C(C#N)(C#N)C1C(=O)c2ccccc2C1=O,0.981
15,O=C1C(Cl)=CC(=Nc2ccc(O)cc2)C=C1Cl,11.4
16,CC1NC(=O)NC1CCCCCC(=O)Nc1ccc(F)c(Cl)c1 (centres undefined),< 0.08
17,COCCN=c1scc(-c2ccco2)n1/N=C/c1ccc(O)c(O)c1O,0.538
18,CN(C)c1ccc(C=c2c3cc(O)ccc3n3c2cc(-c2ccccc2)[n+]3C)cc1,0.975
19,CCOc1ccc(NCc2cccn2-c2nnc(N3CCC(C(=O)NCCCN4CCCCC4)CC3)s2)cc1,5.94

row,Structure (SMILES),AC50 [µM]
1,CSC(=S)N/N=C/c1c[nH]c2ccccc12,11.5
2,C[C@H](CO)N1C[C@H](C)[C@@H](CN(C)Cc2ccc(Cl)c(Cl)c2)Oc2ccc(N(C)C)cc2CC1=O,10.8
3,CCOC(=O)c1c(-c2ccc(-c3ccccc3)cc2)csc1NC(=O)CNCCN(C)C,5.86
4,CCc1nc2ccc(C(=O)NC3CCN(Cc4ccccc4)CC3)cn2c1N(C)Cc1ccc(N(C)C)cc1,5.52
5,Cc1c(C(=O)NCC(c2ccco2)N(C)C)oc2c(Cl)cccc12 (centres undefined),7.77
6,CC(C)(C)C1=CC(=Nc2ccccc2N)C=C(C(C)(C)C)C1=O,0.761
7,CCN(Cc1ccccc1)c1ccc(/C=N/N=C(N)N)cc1,4.43
8,CN(C)CCNC(=O)c1cccc(-c2cnc3c(NC=O)cc(/C=C/c4ccccc4)cn23)c1,0.523
9,CCN(CC)c1ccc(C(=C2C=CC(=[N+](CC)CC)C=C2)c2ccccc2)cc1,0.685
10,Cc1c(P(=S)(c2ccccc2)c2ccccc2)[n+]2ccccc2n1C,7.98
11,CN(CCc1ccccc1)C(=O)c1ccc(NC(=O)Cc2ccc(NC(=O)C3CCN(C(=O)C4CCCC4)CC3)cc2)cc1,< 0.08
12,Oc1cc(Nc2cccnc2)cc2cccnc12,6.03
13,COc1cccc(NC2=C(NCCO)C(=O)c3ccccc3C2=O)c1,6.38
14,COc1ccccc1N(C(C)=O)C1=C(Cl)C(=O)c2ccccc2C1=O,7.96
15,CC[C@H](C)[C@@H]1NC(=O)c2cc([N+](=O)[O-])cc(F)c2NCCCC[C@@H](C(N)=O)NC(=O)[C@H](CCCCN)NC1=O,9.36
16,CCN(CCCNc1cc2c(c(N)c1S(=O)(=O)O)C(=O)c1ccccc1C2=O)c1ccccc1,3.65
17,CCN(CC)c1ccc(N=C2C(=O)Nc3ccccc32)cc1,2.77
18,CN(C)CCNc1ncnc2c1sc1nc(-c3ccccc3)c3c(c12)CCCC3,6.89

# Same assay, conditions: biochemical protein-protein interaction assay, at 10 µM (top of the series)
row,Structure (SMILES),"activity change, negative = inhibition"
1,Cn1cc(C(=O)N/N=C/c2c(O)ccc3ccccc23)ccc1=O,inactive
2,CN(C)c1ccc(NC(=O)Cn2cc3c(n2)CCCC3)cc1,inactive
3,COc1ccccc1Nc1c2c(nc3ccc(N)cc13)CCCC2,inactive
4,CN(C)c1ccc(C(CN)c2c[nH]c3ccccc23)cc1 (centres undefined),inactive
5,Oc1cc2c(cc1O)C1c3ccc(O)c(O)c3OCC1(O)C2 (centres undefined),inactive
6,CCOc1cc(N2CCOCC2)c(OCC)cc1NC(=O)c1ccc2ccccc2n1,inactive
7,COc1cccc(-c2ccc3c(c2)[C@H]2[C@H](CCN2C(=O)C2CCCCC2)[C@@H](CO)N3)c1,inactive
8,CC(C)C1CC(CCNCc2ccc(N(C)C)cc2)(c2ccccc2)CCO1 (centres undefined),inactive
9,CCOC(=O)/C(C#N)=C/c1c(N2CCN(Cc3ccc4c(c3)OCO4)CC2)nc2c(C)cccn2c1=O,inactive
10,COc1ccc(CN2CC3(C2)CN(Cc2ccc4c(c2)OCO4)[C@H](CO)c2[nH]c4cc(OC)ccc4c23)cc1,inactive
11,S=C(NN=C(c1ccccc1)c1ccccn1)N(Cc1ccccn1)Cc1ccccn1,inactive
12,c1ccc2c(c1)nc(Nc1ccc(N3CCCCC3)cc1)c1nncn12,inactive
13,c1cc2c3c(cccc3c1)NC(c1ccc3c(c1)OCO3)N2,inactive
14,CCOc1cc(/C=N/N=C(N)N)ccc1OCc1ccc(Cl)cc1,inactive
15,COc1ccccc1N1CCN(/N=C/c2cccc(Cl)c2)CC1,inactive
16,Nc1[nH]n(-c2ccccc2)c(=O)c1N=Nc1ccc2c(c1)OCCO2,inactive

row,Structure (SMILES),"activity change, negative = inhibition"
1,CN=c1scc(-c2cccs2)n1/N=C/c1ccccc1O,inactive
2,CCOc1ccc(NC(=S)N(CCN2CCOCC2)Cc2ccc3c(c2)CCCN3CC)cc1,inactive
3,CN=c1scc(-c2ccc(OC)cc2)n1/N=C(\C)c1cccnc1,inactive
4,Nc1ccc(O)c2c1C(=O)c1ccccc1C2=O,inactive
5,COC(=O)C1=CC(C(=O)c2cccs2)=NN(c2ccc(OC)cc2)C1C(=O)OC (centres undefined),inactive
6,Oc1c(C(c2ccc(Cl)cc2)N2CCCC2)cc(Cl)c2cccnc12 (centres undefined),inactive
7,O=C(NC1CCCCC1)C(c1cccnc1)N(C(=O)CCl)c1cccc(Cl)c1 (centres undefined),inactive
8,CN1CCN(CCCN2c3ccccc3Sc3ccc(C(F)(F)F)cc32)CC1,inactive
9,CCOc1ccc(/C=N/Nc2cc(N3CCOCC3)ncn2)c(O)c1,inactive
10,CCN(CC)c1ccc(CN2CCC(C(=O)NCc3ccc(C)cc3)CC2)cc1,inactive
11,COc1ccc(N2CCN(C3CCCN(S(=O)(=O)c4ccc(C)cc4C)C3)CC2)cc1 (centres undefined),inactive
12,COc1cc(OC)c2c(-c3ccccc3)cc(=O)oc2c1C(CCN1CCOCC1)c1ccc(N(C)C)cc1 (centres undefined),inactive
13,CCOC(=O)C1CCN(C2=C(NS(=O)(=O)c3ccc(Cl)cc3)C(=O)c3ccccc3C2=O)CC1,inactive
14,C[C@H](CO)N1C[C@H](C)[C@H](CN(C)Cc2ccc(Cl)c(Cl)c2)Oc2ccc(N(C)C)cc2C1=O,inactive
15,CCN(CC)c1ccc(N=Cc2ccc([N+](=O)[O-])o2)cc1,inactive
16,O=[N+]([O-])c1cc(/C=N/Nc2nc3ccccc3[nH]2)c(O)cc1O,inactive
